IC50 data for eleven molecules are collected here from patent publication US9850225B2, “Compounds useful as immunomodulators” (BRISTOL-MYERS SQUIBB COMPANY, priority 2014, dated 2017).

Chain of PD-1/PD-L1 interaction (PD-1-Ig / PD-L1-His) (Q9NZQ7 other isoform, or with tags, fused parts or gaps): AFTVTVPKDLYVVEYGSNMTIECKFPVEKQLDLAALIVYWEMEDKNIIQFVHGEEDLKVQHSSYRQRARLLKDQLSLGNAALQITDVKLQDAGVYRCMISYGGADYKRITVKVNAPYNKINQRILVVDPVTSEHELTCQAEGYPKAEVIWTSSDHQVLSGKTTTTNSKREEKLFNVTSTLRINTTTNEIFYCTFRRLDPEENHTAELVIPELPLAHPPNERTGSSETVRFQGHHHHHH

In this experiment the target is PD-1/PD-L1 interaction (PD-1-Ig / PD-L1-His) (Homo sapiens (Human), UniProt Q9NZQ7). Nature of the experiment: PD-1/PD-L1 Homogenous Time-Resolved Fluorescence (HTRF) binding assay. As to conditions: PD-1/PD-L1 HTRF binding assay; value given as range class; read-out: Range or IC50. The gist of the method:
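HTRF detection used 1 nM europium-cryptate anti-Ig and 20 nM APC anti-His. Compounds first saw 10 nM PD-L1-His for 15 min, and 20 nM PD-1-Ig was then added for another 15 min. Buffer was dPBS plus 0.1% BSA and 0.05% Tween-20. All concentrations are final.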
For `COc1cc(OCc2cccc(-c3ccccc3)c2C)cc(OCc2cccc(C#N)c2)c1CN[C@H](CO)C(=O)O` [Example 1134, (R)-2-((2-((3-cyanobenzyl)oxy)-6-methoxy-4-((2-methyl-[1,1′-biphenyl]-3-yl)methoxy)benzyl)amino)-3-hydroxypropanoic acid], the IC50 (as a rule, the point on the concentration scale where inhibition reaches its midpoint) lay within 0.6 to 10 nM.

Take `CC(=O)NCCNCc1ccc(OCc2cccc(-c3ccccc3)c2C)cc1OCc1cccc(C#N)c1` [Example 1028, N-(2-((2-((3-cyanobenzyl)oxy)-4-((2-methyl-[1,1′-biphenyl]-3-yl)methoxy)benzyl)amino)ethyl)acetamide]: the IC50 lay in the range of 10 to 100 nM.

With `CC(=O)NCCNCc1ccc(OCc2cccc(-c3ccccc3)c2C)cc1OC[C@@H]1CCC(=O)N1` [Example 1120, (S)—N-(2-((4-((2-methyl-[1,1′-biphenyl]-3-yl)methoxy)-2-((5-oxopyrrolidin-2-yl)methoxy)benzyl)amino)ethyl)acetamide], the IC50 lay in the range of 10 to 100 nM.

For the molecule `Cc1cc(CN[C@@H](CO)C(=O)O)c(OCc2cccnc2)cc1OCc1cccc(-c2ccc3c(c2)OCCO3)c1C` [Example 1277, (S)-2-((4-((3-(2,3-dihydrobenzo[b][1,4]dioxin-6-yl)-2-methylbenzyl)oxy)-5-methyl-2-(pyridin-3-ylmethoxy)benzyl)amino)-3-hydroxypropanoic acid], the half-maximal inhibitory concentration (IC50) lay in the range of 0.6 to 10 nM.

For `COc1cc(OCc2cccc(-c3ccccc3)c2C)cc(OCc2cccc(C#N)c2)c1CNC(C)(CO)C(=O)O` (centres unmarked) [Example 1137, 2-((2-((3-cyanobenzyl)oxy)-6-methoxy-4-((2-methyl-[1,1′-biphenyl]-3-yl)methoxy)benzyl)amino)-3-hydroxy-2-methylpropanoic acid], the IC50 fell in the range of 0.6 to 10 nM.

Consider `Cc1c(COc2cc(OCc3cncc(C#N)c3)c(CN[C@@H](CCCN)C(=O)O)cc2Cl)cccc1-c1ccc2c(c1)OCCO2` [Example 2003, (S)-5-amino-2-((5-chloro-2-((5-cyanopyridin-3-yl)methoxy)-4-((3-(2,3-dihydrobenzo[b][1,4]dioxin-6-yl)-2-methylbenzyl)oxy)benzyl)amino)pentanoic acid], for which the IC50 lay within 0.6 to 10 nM.

Consider `Cc1c(COc2cc(OCc3cccc(S(C)(=O)=O)c3)c(CN[C@@](C)(CO)C(=O)O)cc2Cl)cccc1-c1ccc2c(c1)OCCO2` [Example 3021, (S)-2-((5-chloro-4-((3-(2,3-dihydrobenzo[b][1,4]dioxin-6-yl)-2-methylbenzyl)oxy)-2-((3-(methylsulfonyl)benzyl)oxy)benzyl)amino)-3-hydroxy-2-methylpropanoic acid], for which the IC50 lay within 0.6 to 10 nM.

As for `COCC(NCc1cc(Cl)c(OCc2cccc(-c3ccc4c(c3)OCCO4)c2C)cc1OCc1cccc(C#N)c1)C(=O)O` (centres unmarked) [Example 1184, 2-((5-chloro-2-((3-cyanobenzyl)oxy)-4-((3-(2,3-dihydrobenzo[b][1,4]dioxin-6-yl)-2-methylbenzyl)oxy)benzyl)amino)-3-methoxypropanoic acid], the IC50 lay in the range of 0.6 to 10 nM.

Turning to `CSCC[C@H](NCc1cc(Cl)c(OCc2cccc(-c3ccc4c(c3)OCCO4)c2C)cc1OCc1cccc(C#N)c1)C(=O)O` [Example 1202, (S)-2-((5-chloro-2-((3-cyanobenzyl)oxy)-4-((3-(2,3-dihydrobenzo[b][1,4]dioxin-6-yl)-2-methylbenzyl)oxy)benzyl)amino)-4-(methylthio)butanoic acid], the IC50 was in the range of 10 to 100 nM.

As to `N#Cc1cccc(COc2cc(OCc3cccc(-c4ccc5c(c4)OCCO5)c3Cl)ccc2CNC[C@@H](O)CC(=O)O)c1` [Example 1147, (S)-4-(4-(2-chloro-3-(2,3-dihydrobenzo[b][1,4]dioxin-6-yl)benzyloxy)-2-(3-cyanobenzyloxy)benzylamino)-3-hydroxybutanoic acid], the IC50 was 0.6 to 10 nM.

In the case of `Cc1c(COc2cc(OCc3cccc(C#N)c3)c(CNC(CO)(C(=O)O)C(C)C)cc2Cl)cccc1-c1ccc2c(c1)OCCO2` (centres unmarked) [Example 1214, 2-((5-chloro-2-((3-cyanobenzyl)oxy)-4-((3-(2,3-dihydrobenzo[b][1,4]dioxin-6-yl)-2-methylbenzyl)oxy)benzyl)amino)-2-(hydroxymethyl)-3-methylbutanoic acid], the IC50 fell in the range of 0.6 to 10 nM.
